2 molecules from patent US11844349B2, “Anti-microbial agent to control biomass accumulation in SO2 scrubbers” (ECOLAB USA INC., priority 2016, dated 2023) can be followed below.

For the assay, the system named is bacterial populations native to the test sample. Put plainly: Minimum inhibitory concentration screen of biocides under anaerobic conditions (pH indicator dye). The assay is classed as cell-based. The conditions noted are these: pH 6.5, read-out: Minimum Inhibitory Concentration. From the text: A few exemplary biocides or a combination of one or more quaternary ammonium compounds with one additional biocide were investigated for their ability to inhibit microorganism growth. The method used to generate the data in Table 1 was based on methods for identifying the minimum inhibitory concentration of biocides or biocidal agents for use in anaerobically contaminated aqueous system as disclosed in the patent publication WO9934013A1 by Schwingel, et. al.
The method was a test assay used to rapidly screen antimicrobial agents against bacterial populations native to the test sample under anaerobic conditions. The assay utilized a pH indicator dye which is red at pH levels above 6.5 and yellow below pH 6.5. During fermentation under anaerobic conditions, volatile fatty acids were produced, which lowered the pH of the system. In the test wells, the accumulation of volatile fatty acids from actively growing and fermenting microorganisms lowered the pH causing the indicator dye to turn yellow. […]
When the control sample had turned yellow due to active fermentation and acid production, all samples were examined for color change, and the Minimum Inhibitory Concentration (MIC) values recorded. […] Because MIC values change with extended contact time, it was important to read the MIC values within 2-3 hours of the control wells turning yellow. […]

Molecules are shown by their SMILES.

As for `N#CSCSC#N` [Methylenebisthiocyanate], the MIC lay in the range of 0.8 to 1.6 µg/mL.
Then `CN1CSC(=S)N(C)C1` [3,5-dimethyl-tetrahydro-2H-1,3,5-thiadiazine-2-thione], with 26.2 µg/mL.
